From PMC7737538 (ACS Medicinal Chemistry Letters, 2020)

What was measured:
[1] = test system: SARS-CoV-2 (two clinical isolates); experiment: SARS-CoV-2 antiviral assay in Vero cells, statements without strain; type: cell-based
in vitro = conditions: human
[2] = test system: VZV TK+ strain (strain Oka); type: cell-based, varicella zoster virus; conditions: HEL fibroblasts; strain not given
HCMV AD-169 strain = experiment: HCMV antiviral assay in HEL fibroblasts, AD-169 strain; type: cell-based, human cytomegalovirus; conditions: strain not given
Vero cells = conditions: readout not given
human rhinovirus (HRV) = conditions: read-out: EC50 against human rhinovirus (HRV); in vitro; cited from earlier work

SMILES	antiviral activity against SARS-CoV-2 (in words) [1]	activity against VZV (in words) [2]	activity against HCMV (in words) (HCMV AD-169 strain)	cytotoxicity in Vero cells (in words) (Vero cells)	also measured
C[C@H](NP(=O)(OC[C@H]1O[C@@H](n2ccc(N)nc2=O)C(F)(F)[C@@H]1O)Oc1ccccc1)C(=O)OCc1ccccc1 (stereo partly drawn) [2c, Benzyl ((((2R,3R,5R)-5-(4-Amino-2-oxopyrimidin-1(2H)-yl)-4,4-difluoro-3-hydroxytetrahydrofuran-2-yl)methoxy)(phenoxy)phosphoryl)-L-alaninate]	lack of activity	–	–	–	–
Nc1ccn(C[C@@H](CO)OCP(=O)(O)O)c(=O)n1 [cidofovir]	–	–	–	–	CC50 (in vitro): 150 ± 29.1 µM
CO[C@]1(CO)O[C@@H](n2ccc(=O)[nH]c2=O)C(F)(F)[C@@H]1O [12a]	–	completely devoid of activity	completely devoid of activity	–	–
Nc1ccn([C@@H]2O[C@H](CO)[C@@H](O)C2(F)F)c(=O)n1 [gemcitabine, 2′-deoxy-2′,2′-difluorocytidine, reference compound]	–	–	–	high cytotoxicity	EC50 (human rhinovirus (HRV)): 810 to 1920 nM
Nc1nc(O)c2ncn(COC(CO)CO)c2n1 [ganciclovir]	–	–	–	–	CC50 (in vitro): 231 ± 49.2 µM
Nc1ccn([C@@H]2O[C@](F)(CO)[C@@H](O)C2(F)F)c(=O)n1 [1b]	no selective antiviral activity	–	–	–	–
CO[C@]1(CO)O[C@@H](n2ccc(N)nc2=O)C(F)(F)[C@@H]1O [1a]	devoid of antiviral activity	completely devoid of activity	completely devoid of activity	devoid of antiviral activity and cytotoxicity	–
C[C@H](NP(=O)(OC[C@@]1(F)O[C@@H](n2ccc(N)nc2=O)C(F)(F)[C@@H]1O)Oc1ccccc1)C(=O)OCc1ccccc1 (some centres unmarked) [2b]	minimal antiviral activity	–	–	–	–
O=c1ccn([C@@H]2O[C@](F)(CO)[C@@H](O)C2(F)F)c(=O)[nH]1 [12b]	–	completely devoid of activity	completely devoid of activity	–	–
CO[C@]1(COP(=O)(N[C@@H](C)C(=O)OCc2ccccc2)Oc2ccccc2)O[C@@H](n2ccc(N)nc2=O)C(F)(F)[C@@H]1O (some centres unmarked) [2a]	devoid of antiviral activity	–	–	devoid of antiviral activity and cytotoxicity	–
